One assay concerns the target T1, CDK2/CyclinE (Homo sapiens, UniProt P24941).
T1 construct: GST; purchased ProQinase GmbH (Freiburg, Germany); host or cells: insect cells (Sf9)
Kind of assay: CDK2/CycE kinase assay (TR-FRET). The class given is biochemical. As to conditions: 2 mM ATP (high ATP); median; read-out: CDK2/CyclinE, 2 mM ATP (high ATP) IC50 - [mol/l] (median). The text has this: 2.4 CDK2/CycE Kinase Assay
CDK2/CycE-inhibitory activity of compounds of the present invention was quantified employing the CDK2/CycE TR-FRET assay as described in the following paragraphs.
Recombinant fusion proteins of GST and human CDK2 and of GST and human CycE, expressed in insect cells (Sf9) and purified by Glutathion-Sepharose affinity chromatography, were purchased from ProQinase GmbH (Freiburg, Germany). As substrate for the kinase reaction biotinylated peptide biotin-Ttds-YISPLKSPYKISEG (C-terminus in amid form) was used which can be purchased e.g. form the company JERINI peptide technologies (Berlin, Germany).
For the assay 50 nanoL of a 100 fold concentrated solution of the test compound in DMSO was pipetted into a black low volume 384 well microtiter plate or a black 1536 well microtiter plate (both Greiner Bio-One, Frickenhausen, Germany), 2 microL of a solution of CDK2/CycE in aqueous assay buffer [50 millimol/L Tris/HCl pH 8.0, 10 millimol/L MgCl2, 1.0 millimol/L dithiothreitol, 0.1 millimol/L sodium ortho-vanadate, 0.01% (v/v) Nonidet-P40 (Sigma)] were added and the mixture was incubated for 15 min at 22° C. to allow pre-binding of the test compounds to the enzyme before the start of the kinase reaction. Then the kinase reaction was started by the addition of 3 microL of a solution of adenosine-tri-phosphate (ATP, 3.33 millimol/L=>final conc. in the 5 microL assay volume is 2 millimol/L) and substrate (1.25 micromol/L=>final conc. in the 5 microL assay volume is 0.75 micromol/L) in assay buffer and the resulting mixture was incubated for a reaction time of 25 min at 22° C. The concentration of CDK2/CycE was adjusted depending of the activity of the enzyme lot and was chosen appropriate to have the assay in the linear range, typical concentrations were in the range of 10 ng/mL. The reaction was stopped by the addition of 3 microL of a solution of TR-FRET detection reagents (0.333 micromol/L streptavidine-XL665 [Cisbio Bioassays, Codolet, France] and 1.67 nanomol/L anti-RB(pSer807/pSer811)-antibody from BD Pharmingen [#558389] and 2 nanomol/L LANCE EU-W1024 labeled anti-mouse IgG antibody [Perkin-Elmer, product no. AD0077, as an alternative a Terbium-cryptate-labeled anti-mouse IgG antibody from Cisbio Bioassays can be used]) in an aqueous EDTA-solution (167 millimol/L EDTA, 0.2% (w/v) bovine serum albumin in 100 millimol/L HEPES pH 7.5).
The resulting mixture was incubated 1 h at 22° C. to allow the formation of complex between the phosphorylated biotinylated peptide and the detection reagents. Subsequently the amount of phosphorylated substrate was evaluated by measurement of the resonance energy transfer from the Eu-chelate to the streptavidine-XL. Therefore, the fluorescence emissions at 620 nm and 665 nm after excitation at 350 nm was measured in a TR-FRET reader, e.g. a Pherastar (BMG Labtechnologies, Offenburg, Germany) or a Viewlux (Perkin-Elmer). The ratio of the emissions at 665 nm and at […] was taken as the measure for the amount of phosphorylated substrate. The data were normalised (enzyme reaction without inhibitor=0% inhibition, all other assay components but no enzyme=100% inhibition).

Assay [1] has as its system BRCA1 mRNA expression in MDA-MB-231 cells. Kind of assay: qRT-PCR assay: inhibition of BRCA1 mRNA expression in MDA-MB-231 cells. The assay is classed as cell-based, human. As to conditions: 24 h exposure, BRCA1 mRNA normalised to GAPDH, median, read-out: RTqPCR-MDA-MB-231 IC50 [mol/l] BRCA1 (median). The method, then: 3. qRT-PCR Assay: BRCA1, ATR, MCL1 in MDA-MB-231, CAL-120
Tissue cultured human MDA-MB-231 human breast cancer cells were plated in 500 microL per well at 200,000 cells/well in a 24 well microtiter plate. After 24 h, the cells were exposed continuously for 24 h to test substances (substances were added with Tecan HP D300 Dispenser). RNA was prepared using Qiagen RNeasy MiniKit (#74106), RNA was quantified using a NanoDrop Equipment, and 600 nano gamms of RNA was coverted to cDNA using a SuperScript VILO kit (Thermofisher #11755050) followed by qPCR amplification. BRCA1 and ATR gene expression was measured by RT-qPCR and normalised to GAPDH housekeeping gene expression. qPCR primer sets have been purchased from Thermo Fisher Scientific/Applied Biosystems: BRCA1, # Hs 01556193; ATR, #Hs 00992123; GAPDH, #Hs 03929097.

Results on 20 compounds are retold here after patent US20230192700A1, “PYRAZOLOPYRAZINES ACTING ON CANCERS VIA INHIBITION OF CDK12” (Bayer Aktiengesellschaft, priority 2020, published 2023).

Like-named read-outs stand apart in the source and are kept apart here.

Regarding `CC(C)(O)C1CC(n2nc(NCc3nc4ccccc4[nH]3)c3ncc(C4CC4)nc32)C1` (mixture of isomers) [Example 48, 2-[cis/trans-3-(3-{[(1H-benzimidazol-2-yl)methyl]amino}-6-cyclopropyl-1H-pyrazolo[3,4-b]pyrazin-1-yl)cyclobutyl]propan-2-ol], the IC50 at CDK2/CyclinE is greater than 20 µM; in assay [1] (Homo sapiens, MDA-MB-231, 24 h) it was 0.0395 µM.

In the case of `CN1CCCC(n2nc(NCc3nc4ccccc4[nH]3)c3ncc(C4CC4)nc32)CC1` (racemic) [Example 34, (±)-N-[(1H-benzimidazol-2-yl)methyl]-6-cyclopropyl-1-(1-methylazepan-4-yl)-1H-pyrazolo[3,4-b]pyrazin-3-amine], the IC50 is greater than 20 µM on CDK2/CyclinE and 0.0225 µM in assay [1] (Homo sapiens, MDA-MB-231, 24 h).

Consider `CN1CCC(n2nc(NCc3nc4ccccc4[nH]3)c3ncc(C4CC4)nc32)C1` (racemic) [Example 35, (±)-N-[(1H-benzimidazol-2-yl)methyl]-6-cyclopropyl-1-(1-methylpyrrolidin-3-yl)-1H-pyrazolo[3,4-b]pyrazin-3-amine], for which the IC50 at CDK2/CyclinE was greater than 20 µM; in assay [1] (Homo sapiens, MDA-MB-231, 24 h), 0.0302 µM. Regarding `CC1CC(n2nc(NCc3nc4ccccc4[nH]3)c3ncc(C4CC4)nc32)CCN1C` (racemic) [Example 41, (±)-cis/trans-N-[(1H-benzimidazol-2-yl)methyl]-6-cyclopropyl-1-(1,2-dimethylpiperidin-4-yl)-1H-pyrazolo[3,4-b]pyrazin-3-amine], the IC50 on CDK2/CyclinE was greater than 20 µM; in assay [1] (Homo sapiens, MDA-MB-231, 24 h) it was 0.0206 µM. For `CC1CC(n2nc(NCc3nc4ccccc4[nH]3)c3ncc(C4CC4)nc32)CCO1` (racemic) [Example 44, (±)-cis/trans-N-[(1H-benzimidazol-2-yl)methyl]-6-cyclopropyl-1-(2-methyloxan-4-yl)-1H-pyrazolo[3,4-b]pyrazin-3-amine], the IC50 on CDK2/CyclinE is greater than 20 µM; in assay [1] (Homo sapiens, MDA-MB-231, 24 h), 0.0242 µM. For `c1ccc2[nH]c(CNc3nn(C4CCOC4)c4nc(C5CC5)cnc34)nc2c1` (single isomer, unassigned) [Example 17, (+) or (−)-N-[(1H-benzimidazol-2-yl)methyl]-6-cyclopropyl-1-(oxolan-3-yl)-1H-pyrazolo[3,4-b]pyrazin-3-amine], the IC50 at CDK2/CyclinE was greater than 20 µM; in assay [1] (Homo sapiens, MDA-MB-231, 24 h), 0.0109 µM. Regarding `c1ccc2[nH]c(CNc3nn(C4CCOC4)c4nc(C5CC5)cnc34)nc2c1` (single isomer, unassigned) [Example 18, (-) or (+) -N-[(1H-benzimidazol-2-yl)methyl]-6-cyclopropyl-1-[oxolan-3-yl]-1H-pyrazolo[3,4-b]pyrazin-3-amine], the results for the IC50 (at CDK2/CyclinE; in assay [1]) were greater than 20 µM and greater than 0.0107 µM, respectively. Turning to `CN1CCCC(n2nc(NCc3nc4ccccc4[nH]3)c3ncc(C4CC4)nc32)CC1` (single isomer, unassigned) [Example 37, (+) or (−)-N-[(1H-benzimidazol-2-yl)methyl]-6-cyclopropyl-1-[(4R*)-1-methylazepan-4-yl]-1H-pyrazolo[3,4-b]pyrazin-3-amine], the IC50 was greater than 20 µM on CDK2/CyclinE and 0.0113 µM in assay [1] (Homo sapiens, MDA-MB-231, 24 h).

Regarding `CN1CCCC(n2nc(NCc3nc4ccccc4[nH]3)c3ncc(C4CC4)nc32)CC1` (single isomer, unassigned) [Example 38, (−) or (+)-N-[(1H-benzimidazol-2-yl)methyl]-6-cyclopropyl-1-[(4R*)-1-methylazepan-4-yl]-1H-pyrazolo[3,4-b]pyrazin-3-amine], the values for the IC50 (at CDK2/CyclinE; in assay [1]) were greater than 20 µM and 0.0218 µM, respectively. `CN1CCC(n2nc(NCc3nc4ccccc4[nH]3)c3ncc(C4CC4)nc32)C1` (single isomer, unassigned) [Example 78, (+) or (−)-N-[(1H-benzimidazol-2-yl)methyl]-6-cyclopropyl-1-(1-methylpyrrolidin-3-yl)-1H-pyrazolo[3,4-b]pyrazin-3-amine]: the IC50 on CDK2/CyclinE was greater than 20 µM; in assay [1] (Homo sapiens, MDA-MB-231, 24 h) it was 0.0156 µM.

For the compound `COCCn1nc(NCc2nc3ccccc3[nH]2)c2ncc(C3CC3)nc21` [Example 65, N-[(1H-benzimidazol-2-yl)methyl]-6-cyclopropyl-1-(2-methoxyethyl)-1H-pyrazolo[3,4-b]pyrazin-3-amine], on CDK2/CyclinE, the IC50 is greater than 20 µM. On to `OCCn1nc(NCc2nc3ccccc3[nH]2)c2ncc(C3CC3)nc21` [Example 66, 2-(3-{[(1H-benzimidazol-2-yl)methyl]amino}-6-cyclopropyl-1H-pyrazolo[3,4-b]pyrazin-1-yl)ethan-1-ol], for which, on CDK2/CyclinE, the IC50 is greater than 20 µM. As for `CN(C)CCn1nc(NCc2nc3ccccc3[nH]2)c2ncc(C3CC3)nc21` [Example 68, N-[(1H-benzimidazol-2-yl)methyl]-6-cyclopropyl-1-[2-(dimethylamino)ethyl]-1H-pyrazolo[3,4-b]pyrazin-3-amine], the IC50 on CDK2/CyclinE was greater than 20 µM. For `CC(C)(O)Cn1nc(NCc2nc3ccccc3[nH]2)c2ncc(C3CC3)nc21` [Example 69, 1-(3-{[(1H-benzimidazol-2-yl)methyl]amino}-6-cyclopropyl-1H-pyrazolo[3,4-b]pyrazin-1-yl)-2-methylpropan-2-ol], the IC50 at CDK2/CyclinE was greater than 20 µM. Same read-out and setting: under `O[C@H]1C[C@H](Cn2nc(NCc3nc4ccccc4[nH]3)c3ncc(C4CC4)nc32)C1` [Example 70, trans-3-[(3-{[(1H-benzimidazol-2-yl)methyl]amino}-6-cyclopropyl-1H-pyrazolo[3,4-b]pyrazin-1-yl)methyl]cyclobutan-1-ol] stands greater than 20 µM; under `OC1(Cn2nc(NCc3nc4ccccc4[nH]3)c3ncc(C4CC4)nc32)CCC1` [Example 72, 1-[(3-{[(1H-benzimidazol-2-yl)methyl]amino}-6-cyclopropyl-1H-pyrazolo[3,4-b]pyrazin-1-yl)methyl]cyclobutan-1-ol], greater than 20 µM. Regarding `OC1(Cn2nc(NCc3nc4ccccc4[nH]3)c3ncc(C4CC4)nc32)CCCC1` [Example 73, 1-[(3-{[(1H-benzimidazol-2-yl)methyl]amino}-6-cyclopropyl-1H-pyrazolo[3,4-b]pyrazin-1-yl)methyl]cyclopentan-1-ol], at CDK2/CyclinE, the IC50 was greater than 20 µM.

For `OCC1(Cn2nc(NCc3nc4ccccc4[nH]3)c3ncc(C4CC4)nc32)CCC1` [Example 74, {1-[(3-{[(1H-benzimidazol-2-yl)methyl]amino}-6-cyclopropyl-1H-pyrazolo[3,4-b]pyrazin-1-yl)methyl]cyclobutyl}methanol], the IC50 on CDK2/CyclinE was greater than 20 µM. Same read-out and setting: under `c1ccc2[nH]c(CNc3nn(CC4CCC4)c4nc(C5CC5)cnc34)nc2c1` [Example 75, N-[(1H-benzimidazol-2-yl)methyl]-1-(cyclobutylmethyl)-6-cyclopropyl-1H-pyrazolo[3,4-b]pyrazin-3-amine] stands greater than 20 µM; under `Cc1cnc2c(NCc3nc4ccccc4[nH]3)nn(C3CCN(C)CC3)c2n1` [Example 77, N-[(1H-benzimidazol-2-yl)methyl]-6-methyl-1-(1-methylpiperidin-4-yl)-1H-pyrazolo[3,4-b]pyrazin-3-amine], greater than 20 µM.
